Earlier results in PMC2584942, “Phase I dose escalation study of telatinib (BAY 57-9352) in patients with advanced solid tumours” (British Journal of Cancer, 2008).

Test system: human umbilical vein endothelial cells
Set-up: method as in printed
Details: human umbilical vein endothelial cells in vitro; background statement, ref not given; cited from earlier work

CNC(=O)c1cc(COc2nnc(Nc3ccc(Cl)cc3)c3ccoc23)ccn1 [telatinib]
VEGF-dependent proliferation: inhibited
